The target in this assay is T1, PYL10 (Arabidopsis thaliana, UniProt Q8H1R0).
T1 sequence (Q8H1R0 1-183): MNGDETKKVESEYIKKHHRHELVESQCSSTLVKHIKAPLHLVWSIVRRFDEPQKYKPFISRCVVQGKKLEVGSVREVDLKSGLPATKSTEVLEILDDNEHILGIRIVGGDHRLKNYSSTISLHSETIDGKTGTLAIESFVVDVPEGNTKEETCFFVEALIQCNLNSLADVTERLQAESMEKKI
Kind of assay: ITC at […] °C, pH […]; supported by 1H-15N HSQC NMR titration and HAB1 phosphatase assay. It counts as binding.

Molecules are shown by their SMILES.

These results are taken from article PMC4456664, “The HAB1 PP2C is inhibited by ABA-dependent PYL10 interaction” (Scientific Reports, 2015).

As for `CC1=CC(=O)CC(C)(C)[C@@]1(O)/C=C/C(C)=C\C(=O)O` [abscisic acid], the Kd came to 66.2 ± 13.9 µM.

One may read the Kd as the equilibrium constant for the complex coming apart. A lower Kd goes with higher affinity.
